In patent US20150119410A1, “BIOMARKERS OF RESPONSE TO NAE INHIBITORS” (MILLENNIUM PHARMACEUTICALS, INC., priority 2011, published 2015):

Experiments:
Test in all cases: Cell line panel 1 viability screen
Format in all cases: cell-based
NCl-H1975 = NCl-H1975 (lung); 2 μM MLN4924, 72 hours; DMSO control about 1
Procedure: (§1) To support clinical development and identify potential biomarkers of tumor sensitivity or resistance, two large cancer cell line panels (Panel 1, N=653 (McDermott et al. (2007) PNAS 104:19936-19941); Panel 2, N=240 (O'Day et al. (2010) Fourth AACR International Conference on Molecular Diagnostics in Cancer Therapeutic Development)) were treated with MLN4924 and cell viability data (IC50, EC50, and POC—Percentage of Control) were generated.
(§2) Panel 1 (McDermott et al., supra). The cell lines were exposed to three MLN4924 concentrations (20 nM, 200 nM, and 2 μM) for 72 hours. Viability, i.e., cell number, was quantified by measuring fluorescence of a cell-permeant nucleic acid stain. Mean of triplicate values for each sample were taken and compared to DMSO control to calculate percentage of control. In the results, control or no activity value is given a value of about 1, sensitivity is indicated by a value less than 1, with 0 as death of the entire cell population and resistance indicated by a value greater than 1. A continuum of viability values was obtained for each concentration, so some values were selected as cut-offs for final determination of sensitivity or resistance. For example, median POC values of less than the median value of all POC's recorded in the panel (<0.34) indicated sensitivity, values of 0.34 to 0.75 indicated borderline sensitivity, values greater than the 3rd quartile of all POC's in the panel (>0.75) insensitivity or resistance. […] Final judgment of cell line as sensitive, insensitive or resistant was determined by its viability at 2 μM.

NCl-H1581 = NCl-H1581 (lung NSCLC); 2 μM MLN4924, 72 hours; DMSO control about 1
Procedure: as §1, §2

PANC-03-27 = PANC-03-27 (pancreas)
Procedure: as §1, §2

PANC-08-13 = PANC-08-13 (pancreas)
Procedure: as §1, §2

COLO-205 = system: COLO-205
Procedure: as §1, §2

NCl-H1703 = NCl-H1703 (lung NSCLC); 2 μM MLN4924, 72 hours; DMSO control about 1
Procedure: as §1, §2

BxPC-3 = BxPC-3 (pancreas)
Procedure: as §1, §2

CAL-27 = CAL-27 (upper aerodigestive tract)
Procedure: as §1, §2

C2BBe1 = conditions: Homo sapiens; C2BBe1 (intestine); 2 μM MLN4924, 72 hours; DMSO control about 1
Procedure: as §1, §2

CAL-62 = CAL-62 (thyroid)
Procedure: as §1, §2

CFPAC-1 = CFPAC-1 (pancreas)
Procedure: as §1, §2

MKN45 = MKN45 (stomach)
Procedure: as §1, §2

AsPC-1 = AsPC-1 (Pancreas)
Procedure: as §1, §2

KYSE-150 = KYSE-150 (oesophagus)
Procedure: as §1, §2

CaR-1 = CaR-1 (large_intestine)
Procedure: as §1, §2

COCM1 = system: COCM1
Procedure: as §1, §2

SW626 = conditions: Homo sapiens; SW626 (ovary); 2 μM MLN4924, 72 hours; DMSO control about 1
Procedure: as §1, §2

HCT-15 = conditions: Homo sapiens; HCT-15 (intestine); 2 μM MLN4924, 72 hours; DMSO control about 1
Procedure: as §1, §2

SW620 = system: SW620
Procedure: as §1, §2

ACHN = ACHN (kidney)
Procedure: as §1, §2

HT29 = system: HT29
Procedure: as §1, §2

CAL-33 = CAL-33 (upper aerodigestive tract)
Procedure: as §1, §2

UMC-11 = UMC-11 (lung)
Procedure: as §1, §2

[1] = Homo sapiens, 2 μM MLN4924, 72 hours, DMSO control about 1

`NS(=O)(=O)OC[C@@H]1C[C@@H](n2ccc3c(N[C@H]4CCc5ccccc54)ncnc32)C[C@@H]1O` [MLN4924, ((1S,2S,4R)-4-{4-[(1S)-2,3-dihydro-1H-inden-1-ylamino]-7H-pyrrolo[2,3-d]pyrimidin-7-yl}-2-hydroxycyclopentyl)methyl sulphamate] showed a viability at 2 µM (NCl-H1975) of 30.5%, a viability at 2 µM (NCl-H1581) of 73.7% and a viability at 2 µM (PANC-03-27; [1]) of 7.24%. The Phenotype (PANC-03-27; SMAD4 mutant) was “sensitive (median POC values of less than the median value of all POC's recorded in the panel (<0.34) indicated sensitivity)”, the viability at 2 µM (PANC-08-13; [1]) was 77.7% and the Phenotype (PANC-08-13; SMAD4 mutant) was “resistant (values greater than the 3rd quartile of all POC's in the panel (>0.75) insensitivity or resistance)”. The Phenotype (COLO-205; COLO-205 (large_intestine), SMAD4 mutant) was “sensitive (median POC values of less than the median value of all POC's recorded in the panel (<0.34) indicated sensitivity)”, the viability at 2 µM (COLO-205; Homo sapiens, COLO-205 (intestine), 2 μM MLN4924, 72 hours, DMSO control about 1) was 14.4% and the viability at 2 µM (NCl-H1703) was 11%. For the same molecule, the Phenotype (BxPC-3; SMAD4 mutant) was “insensitive (values of 0.34 to 0.75 indicated borderline sensitivity)”, the viability at 2 µM (BxPC-3; [1]) was 41.9% and the Phenotype (CAL-27; SMAD4 mutant) was “sensitive (median POC values of less than the median value of all POC's recorded in the panel (<0.34) indicated sensitivity)”. The viability at 2 µM (CAL-27; [1]) was 2.71%, the viability at 2 µM (C2BBe1) was 71.6% and the Phenotype (CAL-62; NF2 mutant) was “sensitive (median POC values of less than the median value of all POC's recorded in the panel (<0.34) indicated sensitivity)”. The viability at 2 µM (CAL-62; [1]) was 6.76%, the Phenotype (CFPAC-1; SMAD4 mutant) was “sensitive?” and the viability at 2 µM (CFPAC-1; [1]) was 28.2%. For the same molecule, the viability at 2 µM (MKN45; Homo sapiens, MKN-45, 2 μM MLN4924, 72 hours, DMSO control about 1) was 36.1%, the Phenotype (MKN45; SMAD4 mutant) was “insensitive (values of 0.34 to 0.75 indicated borderline sensitivity)” and the Phenotype (AsPC-1; FBXW7 mutant) was “resistant (values greater than the 3rd quartile of all POC's in the panel (>0.75) insensitivity or resistance)”. For the same molecule, the viability at 2 µM (AsPC-1; Homo sapiens, ASPC1, 2 μM MLN4924, 72 hours, DMSO control about 1) was 98.9%, the viability at 2 µM (KYSE-150; [1]) was 12.8% and the Phenotype (KYSE-150; SMAD4 mutant) was “sensitive (median POC values of less than the median value of all POC's recorded in the panel (<0.34) indicated sensitivity)”. For the same molecule, the Phenotype (CaR-1; NF2 mutant) was “sensitive (median POC values of less than the median value of all POC's recorded in the panel (<0.34) indicated sensitivity)”, the viability at 2 µM (CaR-1; [1]) was 32.4% and the viability at 2 µM (COCM1; COCM1 / CoCM-1 (intestine), 2 μM MLN4924, 72 hours, DMSO control about 1) was 114%. For the same molecule, the Phenotype (COCM1; CoCM-1 (large_intestine), SMAD4 mutant) was “resistant (values greater than the 3rd quartile of all POC's in the panel (>0.75) insensitivity or resistance)”, the viability at 2 µM (SW626) was 55.4% and the viability at 2 µM (HCT-15) was 66.5%. For the same molecule, the viability at 2 µM (SW620; Homo sapiens, SW-620, SW620 (intestine), 2 μM MLN4924, 72 hours, DMSO control about 1) was 49.3%, the Phenotype (SW620; SW620 (large_intestine), SMAD4 mutant) was “insensitive (values of 0.34 to 0.75 indicated borderline sensitivity)” and the Phenotype (ACHN; NF2 mutant) was “sensitive (median POC values of less than the median value of all POC's recorded in the panel (<0.34) indicated sensitivity)”. The viability at 2 µM (ACHN; [1]) was 6.21%, the Phenotype (HT29; HT-29 (large_intestine), SMAD4 mutant) was “insensitive (values of 0.34 to 0.75 indicated borderline sensitivity)” and the viability at 2 µM (HT29; Homo sapiens, HT29 / HT-29 (intestine), 2 μM MLN4924, 72 hours, DMSO control about 1) was 43.8%. For the same molecule, the Phenotype (CAL-33; SMAD4 mutant) was “sensitive (median POC values of less than the median value of all POC's recorded in the panel (<0.34) indicated sensitivity)”, the viability at 2 µM (CAL-33; [1]) was 14.4% and the viability at 2 µM (UMC-11; [1]) was 44.7%. The Phenotype (UMC-11; SMAD4 mutant) was “insensitive (values of 0.34 to 0.75 indicated borderline sensitivity)”.
